# Experimental data as given in ChEMBL document CHEMBL3792312, “Synthesis and docking studies of pyrazine-thiazolidinone hybrid scaffold targeting dormant tuberculosis” (Bioorg Med Chem Lett, 2016).
# Assays:
# [1] = system: Mycobacterium tuberculosis; test: Antitubercular activity against dormant Mycobacterium tuberculosis H37Ra at 10 ug after 12 days by XTT-Menadione assay; format: functional
# [2] = system: Mycobacterium tuberculosis; test: Antitubercular activity against dormant Mycobacterium tuberculosis H37Ra at 30 ug after 12 days by XTT-Menadione assay; format: functional
# Escherichia coli [3] = test: Antibacterial activity against Escherichia coli at 10 ug after 8 hrs; format: functional
# [4] = Cytotoxicity against human THP1 cells after 5 days by MTT assay; format: cell-based, THP-1; details: for IC50: Homo sapiens, THP-1, 120 h; for MCC at 120 h: human, THP1 cells, read-out: MIC
# Escherichia coli [5] = test: Antibacterial activity against Escherichia coli at 3 ug after 8 hrs; format: functional
# Escherichia coli [6] = test: Antibacterial activity against Escherichia coli at 30 ug after 8 hrs; format: functional
# Staphylococcus aureus [7] = test: Antibacterial activity against Staphylococcus aureus at 3 ug after 12 hrs; format: functional
# Bacillus subtilis [8] = test: Antibacterial activity against Bacillus subtilis at 3 ug after 12 hrs; format: functional
# [9] = system: Mycolicibacterium smegmatis; test: Antitubercular activity against dormant Mycobacterium smegmatis MC2 155 at 3 ug after 12 days by XTT-Menadione assay; format: functional, str. MC2 155
# MCF7 = test: (§1) Cytotoxicity against human MCF7 cells after 4 days by MTT assay; format: cell-based; details: Homo sapiens, MCF7, 96 h
# [10] = as §1; format: cell-based; details: human, MCF7 cells; read-out: MIC
# [11] = system: Mycobacterium tuberculosis; test: Antitubercular activity against dormant Mycobacterium tuberculosis H37Ra at 3 ug after 12 days by XTT-Menadione assay; format: functional
# [12] = (§2) Cytotoxicity against human A549 cells after 3 days by MTT assay; format: cell-based; details: human, A549 cells; read-out: MIC
# A549 = test: as §2; format: cell-based; details: Homo sapiens, A549, 72 h
# Pseudomonas fluorescens [13] = test: Antibacterial activity against Pseudomonas fluorescens at 3 ug after 8 hrs; format: functional
# Bacillus subtilis [14] = test: Antibacterial activity against Bacillus subtilis at 10 ug after 12 hrs; format: functional
# Pseudomonas fluorescens [15] = test: Antibacterial activity against Pseudomonas fluorescens at 30 ug after 8 hrs; format: functional
# Staphylococcus aureus [16] = test: Antibacterial activity against Staphylococcus aureus at 10 ug after 12 hrs; format: functional
# Pseudomonas fluorescens [17] = test: Antibacterial activity against Pseudomonas fluorescens at 10 ug after 8 hrs; format: functional
# [18] = system: Mycolicibacterium smegmatis; test: Antitubercular activity against dormant Mycobacterium smegmatis MC2 155 at 10 ug after 12 days by XTT-Menadione assay; format: functional, str. MC2 155
# [19] = system: Mycolicibacterium smegmatis; test: Antitubercular activity against dormant Mycobacterium smegmatis MC2 155 at 30 ug after 12 days by XTT-Menadione assay; format: functional, str. MC2 155
# Staphylococcus aureus [20] = test: Antibacterial activity against Staphylococcus aureus at 30 ug after 12 hrs; format: functional
# Bacillus subtilis [21] = test: Antibacterial activity against Bacillus subtilis at 30 ug after 12 hrs; format: functional
# [22] = system: Mycobacterium tuberculosis; test: Antitubercular activity against dormant Mycobacterium tuberculosis H37Ra after 12 days by XTT-Menadione assay; format: functional, organism-based; details: 288 h
# [23] = Cytotoxicity against human PANC1 cells after 5 days by MTT assay; format: cell-based, PANC-1; details: for IC50: Homo sapiens, PANC-1, 120 h; for MCC at 120 h: human, PANC1 cells, read-out: MIC
Compound,inhibition (INH) [1] [%],inhibition (INH) [2] [%],inhibition (INH) (Escherichia coli [3]) [%],IC50 [4] [µg/mL],MCC at 120 h [4] [µg/mL],inhibition (INH) (Escherichia coli [5]) [%],inhibition (INH) (Escherichia coli [6]) [%],inhibition (INH) (Staphylococcus aureus [7]) [%],inhibition (INH) (Bacillus subtilis [8]) [%],inhibition (INH) [9] [%],inhibition (INH) [11] [%],inhibition (INH) (Pseudomonas fluorescens [13]) [%],inhibition (INH) (Bacillus subtilis [14]) [%],inhibition (INH) (Pseudomonas fluorescens [15]) [%],inhibition (INH) (Staphylococcus aureus [16]) [%],inhibition (INH) (Pseudomonas fluorescens [17]) [%],inhibition (INH) [18] [%],inhibition (INH) [19] [%],inhibition (INH) (Staphylococcus aureus [20]) [%],inhibition (INH) (Bacillus subtilis [21]) [%],further results
Cc1cnc(C(=O)NN2C(=O)CS[C@@H]2c2cccc([N+](=O)[O-])c2)cn1,56.26,91.39,53.08,> 100,> 100,47.15,70.21,-1.03,3.26,57.26,48.93,20.43,0.21,42.75,33.4,33.6,20.19,19.6,17.56,4.11,IC50 (MCF7): > 100 µg/mL; MCC at 96 h [10]: > 100 µg/mL; MCC at 72 h [12]: > 100 µg/mL; IC50 (A549): > 100 µg/mL; IC50 [22]: 4.29 µg/mL; MIC [22]: 29 µg/mL; IC50 [23]: > 100 µg/mL; MCC at 120 h [23]: > 100 µg/mL
Nc1nccnc1C(=O)NN1C(=O)CSC1c1ccccc1 (configuration not stated),71.09,91.57,-71.2,89.6,> 100,-94.8,8.78,-20.13,-4.3,43.05,70.02,25.98,-6.1,30.72,32.35,3.29,52.56,-60.9565,-1.45,19.82,IC50 (MCF7): 81.3 µg/mL; MCC at 96 h [10]: > 100 µg/mL; MCC at 72 h [12]: > 100 µg/mL; IC50 (A549): 77 µg/mL; IC50 [22]: 0.909 µg/mL; MIC [22]: 28 µg/mL; IC50 [23]: > 100 µg/mL; MCC at 120 h [23]: > 100 µg/mL
O=C(NN1C(=O)CS[C@@H]1c1ccc(Cl)cc1)c1cnccn1,66.53,91.2,38.71,> 100,> 100,-35.07,51.04,8.74,-13.1,41.55,66.68,8.12,9.6,14.72,12.54,3.658,-6.521,-1.593,-47.91,17.44,IC50 (MCF7): > 100 µg/mL; MCC at 96 h [10]: > 100 µg/mL; MCC at 72 h [12]: > 100 µg/mL; IC50 (A549): > 100 µg/mL; IC50 [22]: 1.09 µg/mL; MIC [22]: 28.8 µg/mL; IC50 [23]: > 100 µg/mL; MCC at 120 h [23]: > 100 µg/mL
CCOc1cc([C@@H]2SCC(=O)N2NC(=O)c2cnc(C)cn2)ccc1O,86.08,90.6,16.57,> 100,> 100,-27.76,29.15,-16.05,21.36,1.412,78.71,12.73,15.08,11.17,-12.53,12.75,28.89,7.269,32.72,16.07,IC50 (MCF7): > 100 µg/mL; MCC at 96 h [10]: > 100 µg/mL; MCC at 72 h [12]: > 100 µg/mL; IC50 (A549): > 100 µg/mL; IC50 [22]: 0.337 µg/mL; MIC [22]: 26.6 µg/mL; IC50 [23]: > 100 µg/mL; MCC at 120 h [23]: > 100 µg/mL
Cc1cnc(C(=O)NN2C(=O)CS[C@H]2c2ccc(N(C)C)cc2)cn1,65.91,91.72,28.08,> 100,> 100,35.59,46.74,34.87,5.9,-19.7482,60.23,12.03,2.71,21.18,27.85,29.04,9.803,23.39,22.9,3.26,IC50 (MCF7): > 100 µg/mL; MCC at 96 h [10]: > 100 µg/mL; MCC at 72 h [12]: > 100 µg/mL; IC50 (A549): > 100 µg/mL; IC50 [22]: 2.31 µg/mL; MIC [22]: 28.4 µg/mL; IC50 [23]: > 100 µg/mL; MCC at 120 h [23]: > 100 µg/mL
COc1ccc([C@H]2SCC(=O)N2NC(=O)c2nccnc2N)cc1OC,70.88,90.99,50.22,85.4,> 100,70.93,4.659,26.84,8.28,50.59,50.37,30.31,22.5,41.19,6.63,22.77,35.96,31.62,34.19,9.92,IC50 (MCF7): 86.2 µg/mL; MCC at 96 h [10]: > 100 µg/mL; MCC at 72 h [12]: > 100 µg/mL; IC50 (A549): 80 µg/mL; IC50 [22]: 0.718 µg/mL; MIC [22]: 25.8 µg/mL; IC50 [23]: > 100 µg/mL; MCC at 120 h [23]: > 100 µg/mL
Cc1cnc(C(=O)NN2C(=O)CS[C@@H]2c2ccc([N+](=O)[O-])cc2)cn1,73.66,91.72,37.74,> 100,> 100,56.92,62.08,9.39,21.45,57.99,72.31,26.73,22.68,22.82,-8.13,7.48,42.01,10.44,13.12,13.11,IC50 (MCF7): > 100 µg/mL; MCC at 96 h [10]: > 100 µg/mL; MCC at 72 h [12]: > 100 µg/mL; IC50 (A549): > 100 µg/mL; IC50 [22]: 0.528 µg/mL; MIC [22]: 27.5 µg/mL; IC50 [23]: > 100 µg/mL; MCC at 120 h [23]: > 100 µg/mL
CCOc1cc([C@H]2SCC(=O)N2NC(=O)c2nccnc2N)ccc1O,65,91.26,-9.65,68.9,> 100,-48.72,-33.02,4.98,22.27,12.74,48.5,-6.51,-16.24,40.87,-5.22,20.37,38.28,-15.9058,24.55,9.32,IC50 (MCF7): 80.8 µg/mL; MCC at 96 h [10]: > 100 µg/mL; MCC at 72 h [12]: > 100 µg/mL; IC50 (A549): 84.2 µg/mL; IC50 [22]: 3.46 µg/mL; MIC [22]: 28.6 µg/mL; IC50 [23]: > 100 µg/mL; MCC at 120 h [23]: > 100 µg/mL
COc1ccc(C2SCC(=O)N2NC(=O)c2cnc(C)cn2)cc1 (configuration not stated),65.76,71.41,-9.96,,,9.978,17.95,-9.85,19.31,46.39,63.11,-0.838,-8.08,29.02,-29.27,19.06,11.4077,27.97,-29.6,18.72,
